Data on 85 compounds can be found in a melting point compilation (Tetko et al.; mined from patent text by program, amines drawn as free bases though some values may be those of a salt).

Bounds are passed on as bounds.

In general, melting point refers to the temperature of the solid-liquid transition. On to `COc1ccc(C)cc1NC(=O)Nc1ccc(N2CCN(C(=O)Nc3ccc(C(O)CO)cc3C)CC2)cc1` (stereo not given), for which the melting point was in the range of 112 to 113 °C. On to `O=c1[nH]c2cc(Cl)ccc2n(C2CCCCC2)c1=O`, for which the melting point was 265 to 266 °C. Compound `CCc1nnc2n1-c1ccc(I)cc1C(c1ccccc1F)=NC2` registered a melting point of 209 to 211 °C. With `CN(C)C(=O)Nc1ccc(Oc2ccnc(Cl)n2)cc1`, the melting point amounted to 192 °C. In turn, `O=C(c1cccs1)c1cnn2c(-c3cccc(NCc4ccc(Cl)cc4)c3)ccnc12` showed a melting point of 149 to 152 °C.

In the case of `CCCCOc1ccc(S(=O)(=O)C2(C(=O)O)CCN(Cc3ccc(Cl)c(Cl)c3)CC2)cc1`, the melting point was 257 °C. With `CCc1cccc(C)c1CNc1c(NC(C)(C)C)c(=O)c1=O`, the melting point was 240 to 244 °C. In turn, `CC1Oc2ccc(OCc3nc4cc(F)ccc4s3)cc2C(=O)C1Cc1cccc(NS(=O)(=O)C(F)(F)F)c1` (stereo not given) registered a melting point of 183 to 185 °C. As to `CCCCC1=NC2(CCCC2)C(=O)N1Cc1ccc(-c2ccccc2S(=O)(=O)Nc2noc(C)c2C)c(CCC)c1`, the melting point lay in the range of 64 to 66 °C. In turn, `Nc1cc(OCc2ccccc2)c2ncccc2c1` yielded a melting point of 183 to 185 °C. `CC1=C(C2C=CN(C(=O)OCC(Cl)(Cl)Cl)N=C2)SCC(=O)N1` (stereo not given) had a melting point of 156 to 157 °C. The result for `COc1ccc(S(=O)(=O)N2c3ccc(Br)cc3-c3ccccc3C2c2ccccc2)cc1Br` (stereo not given) reads 205 to 207 °C; that for `O=S(c1ccccc1)C1COc2ccc(OCc3ccc4ccccc4n3)cc2C1O` (stereo not given), 174 to 176 °C. `O=C(Nc1ccc2c(c1)C(=O)NC2=O)C(=O)N1CCC(Cc2ccccc2)CC1` yielded a melting point of 239 to 241 °C. In turn, `CC(C)(C)NC(=O)[C@@H]1C[C@@H]2CCCC[C@@H]2CN1C[C@H]1OC(=O)N[C@H]1Cc1ccccc1` yielded a melting point of 202 to 204 °C. In turn, `O=C(O)Cc1cnn(-c2ccc(Cl)cc2)c1-c1ccccc1` yielded a melting point of 110 to 111 °C. The result for `C=CC(=O)NCC(C(=O)c1ccccc1)C(=O)c1ccccc1` reads 146 to 148 °C; that for `CC1=Nc2ccccc2C(=O)C1`, 198 to 200 °C. The compound `Nc1sc2c(c1C(=O)c1ccc(Cl)cc1)CCC(Cc1ccccc1)C2` (stereo not given) had a melting point of 60 to 62 °C. On to `CC1COc2c(N3CC(N)C(C(F)F)C3)c(F)cc3c(=O)c(C(=O)O)cn1c23` (stereo not given), for which the melting point lay within 247 to 252 °C. Consider `Cc1c(C2=CCC(c3ccccc3)(N(C)C)CC2)n(CC2CO2)c2ccccc12` (stereo not given), for which the melting point was in the range of 147 to 150 °C. `COc1c2c(cc3ccccc13)CCC(C(=O)O)C2` (stereo not given): the melting point turned out to be 192 °C. Turning to `N#Cc1nn(-c2c(Cl)cc(C(F)(F)F)cc2Cl)c(SCc2ccccc2)c1S(=O)(=O)C(F)(F)F`, the melting point fell in the range of 117 to 119 °C. The compound `Cc1cc(C(O)(C(F)(F)F)C(F)(F)F)cc(C)c1NCCC#N` displayed a melting point of 111 to 114 °C. The result for `CCCN(CCC)C1Cc2c[nH]c3ccc(C(=O)c4ccccc4)c(c23)C1` (stereo not given) reads 150 °C. For `COc1cccc(-c2n[nH]c3c2Cc2ccccc2-3)c1`, the melting point lay in the range of 172 to 174 °C.

For the compound `CCOC(=O)c1ccccc1NC(=O)C(F)(F)F`, the melting point turned out to be 78 °C. Regarding `COC(=O)CN1CC(OC)=CC1=O`, the melting point fell in the range of 104 to 106 °C. As to `CCCOc1ccccc1-c1nc2[nH]c(=O)nnc2c(=O)[nH]1`, the melting point lay in the range of 298 to 299 °C. On to `Cc1oc(-c2ccccc2)nc1COc1cncc(CO)c1`, for which the melting point is 111 to 112 °C.

As to `COC(=O)c1cn(-c2ncccn2)cc1C`, the melting point came to 108 °C. Regarding `COc1cc2cc(C(N)=O)c(N)nc2cc1OC`, the melting point worked out at 275 °C. Take `CCCCC(=O)N(CCCCO)Cc1ccc(-c2ccccc2-c2nnn[nH]2)cc1`: the melting point was 110 to 111 °C. Compound `O=S(=O)(Nc1ccc(Cl)cc1C(=NOCc1ccc(Br)cc1)c1ccccc1)C(F)(F)F` had a melting point of 55 to 56 °C. For the compound `CC(C)(C)OC(=O)N[C@@]1(C(=O)OC(C)(C)C)CC(=O)[C@H]2[C@H](C(=O)OC(C)(C)C)[C@H]21`, the melting point fell in the range of 144 to 146 °C. With `COC(=O)CCc1cc2cc(Cl)ccc2n1S(=O)(=O)c1ccc(C#N)cc1`, the melting point fell in the range of 155 to 159 °C. As for `COc1cc(N2CCC(N3CCCN(C)CC3)CC2)ccc1Nc1ncc2ccc(-c3ccccc3OC)n2n1`, the melting point was 69 to 76 °C. Take `CCOC(=O)c1ccc(NCCC[Si](C)(C)C)cc1`: the melting point was in the range of 64 to 66 °C. The compound `O=C(NCc1ccc(Cl)cc1)c1cn2c(CSc3ccccc3)cc3cc(CN4CCOCC4)cc(c1=O)c32` came in with a melting point of 173 to 175 °C. Compound `COc1cc2c(cc1OC)C(C)(C)C(/C=C/C(=O)N1CCC(CCCC3CCN(C(=O)/C=C/C4=Cc5cc(OC)c(OC)cc5C4(C)C)CC3)CC1)=C2` came in with a melting point of 192 to 194 °C. `Cc1cc(Cl)cc(C(=O)Nc2ccn(C)n2)n1` returned a melting point of 204 °C. `CC(C)c1nc(CO)n(Cc2ccccc2)c1Sc1cc(Cl)cc(Cl)c1` displayed a melting point of 121 to 124 °C. Consider `CCOC(=O)COC1CCN(C(=O)[C@H](C)CC(=O)c2ccc(C#N)cc2)CC1`, for which the melting point is 97 to 98 °C.

Compound `COCCCNC(=O)c1ccc(C(=O)N2CCN(c3ncccc3NCC(C)C)CC2)nc1` showed a melting point of 109 to 110 °C. The compound `O=C1c2c(cc(O)c(O)c2[N+](=O)[O-])CC1CN1CCOCC1` (stereo not given) displayed a melting point of 193 to 195 °C. Regarding `CS(=O)(=O)Nc1ccccc1Sc1c(C(=O)O)sc2cc(OCc3cccnc3)ccc12`, the melting point fell in the range of 258 to 260 °C. On to `O=S(=O)(Nc1ncnc(OCCO)c1-c1ccc(Cl)cc1)c1ccc(C(F)(F)F)cc1`, for which the melting point was in the range of 160 to 162 °C. In turn, `CC1CC(=O)c2c(OS(=O)(=O)c3cccs3)ccc(-c3nccs3)c2C1` (stereo not given) yielded a melting point of 111 to 113 °C. The result for `Nc1c(C(=O)c2cccc(Cl)c2)cc(Br)cc1[N+](=O)[O-]` reads 134 °C; that for `NS(=O)(=O)c1cccc2c1CC(=O)CC2`, 173 to 175 °C.

With `CCOC(=O)C1=C(C)NC(C)=C(C(=O)OC2CCCCC2)C1c1cccc([N+](=O)[O-])c1` (stereo not given), the melting point is 135 °C.

Compound `OCc1ccc(Nc2ccccc2)nc1` yielded a melting point of 119 to 122 °C. Then `COC(=O)CCc1ccc(CCc2csc(NC(C)=O)n2)s1`, with 104 to 106 °C; and `O=C(O)Cc1ccc(N2Cc3ccccc3C2=O)cc1`, with 210 to 211 °C.

In the case of `CC(C)(Cc1c[nH]c2ccccc12)NCC(O)COc1ccccc1C#N` (stereo not given), the melting point was in the range of 120 to 123 °C. The result for `CCN(CC)CCNC(=O)c1cc(Cl)c(N)cc1OCCN` reads 97 to 99 °C.

Take `CN(C)C1(c2ccccc2)CCC(CNC(=O)N2CCC(c3c[nH]c4ccc(F)cc34)CC2)CC1` (stereo not given): the melting point was 95 to 98 °C.

Regarding `CN(C)CCOc1ccccc1CC(=O)N1C[C@@H]2C(=O)CCC(c3ccccc3)(c3ccccc3)[C@@H]2C1` (racemic), the melting point was found to be 90 °C. For `NC(=O)C1=CCCc2cc(Sc3cccc(F)c3)ccc21`, the melting point was 168 to 170 °C.

Take `CCCCCCC(C)(C)c1ccc(C2=CCCN(CC3CC3)C2)c(O)c1`: the melting point worked out at 118 °C. The result for `N#Cc1ccc(NC(=N)Nc2ncccc2OCc2ccccc2)cc1` reads 173 to 175 °C. The result for `CCCCCC(C)C(C)c1cc(O)c2c(c1)OC(C)(C)C1=C2CN(CC(=O)NC)CC1` (stereo not given) reads 131 to 134 °C. Consider `COc1ccccc1OC1CCN(c2nc(-c3ccccc3)nc3ccccc23)C1` (stereo not given), for which the melting point lay within 142 to 144 °C.

`O=c1cc(-c2ccc(OCc3ccccc3)c(OCc3ccccc3)c2)oc2ccc(OCC3CO3)cc12` (stereo not given) registered a melting point of 147 to 149 °C.

On to `Nc1nc2c(ncn2[C@H]2CC[C@@H](CO)C2)c(=O)[nH]1`, for which the melting point was determined as 269 °C. On to `CON=C(C)c1cccc(Nc2nc(OC)cc(OC)n2)c1C(=O)OC`, for which the melting point is 82 to 84 °C.

As to `Cc1cncc(C)c1-c1c(C)cc(N)cc1C`, the melting point fell in the range of 134 to 135 °C. For the compound `NC(=O)c1ccc(-c2cccc3cc(COc4cccc(C(F)(F)F)c4)sc23)cc1`, the melting point lay in the range of 191 to 192 °C. In turn, `Cc1c(NC(=O)c2ccc(OC[C@@H]3CCCO3)cc2)ccc2[nH]c(CNCC(C)(C)O)cc12` showed a melting point of 169 to 170 °C.

Compound `CCCONC(=O)c1cc(OC)cc(Oc2cccc(C(F)(F)F)c2)n1` came in with a melting point of 75 to 77 °C. `COC1(OC)CCN(c2cc3c(cc2F)c(=O)c(C(=O)O)cn3-c2ccc(F)cc2F)C1` registered a melting point of 228 to 230 °C. The result for `O=C(NCCc1ccnc(-c2nc(=O)c3ccccc3s2)c1)c1ccccc1` reads 217 to 219 °C. On to `Cc1nc(-c2ccccc2F)cn1-c1ccc(COc2ncc(C(F)(F)F)cc2Cl)cc1`, for which the melting point was 109 °C. With `Cc1[nH]c(C(=O)N2CCC(C(=O)NCCN(C)C)CC2)c(C)c1-c1nc2ccc(C(=O)c3ccccc3)cc2[nH]1`, the melting point was in the range of 258 to 260 °C.

For the compound `Cn1c(=O)c(C(=O)O)c(-c2ccccc2Cl)c2cc(Cl)ccc21`, the melting point fell in the range of 197 to 198 °C. For the compound `CC(Cl)C(=O)CCCCN1C(=O)c2ccccc2C1=O` (stereo not given), the melting point fell in the range of 61 to 63 °C. For `CN1CCC(N(C)C(=O)c2ccc3nonc3c2)CC1`, the melting point was greater than 260 °C.

Take `CCOC(=O)c1c(C(C)C)c(-c2ccc(F)cc2)cn1CC`: the melting point lay within 74 to 76 °C. For `O=C1NC(=S)SC1=Cc1cccc(OCc2ccc(C(=O)c3ccccc3)cc2)c1`, the melting point lay in the range of 212 to 214 °C. Then `COc1ccc(CC2N(C)CCC(OC)(OC)C2(C)C)cc1` (stereo not given), with 91 to 92.5 °C.

For the compound `CCCCc1ccc2c(c1)C(=O)N(c1ccc3c(ccn3C)c1)C2`, the melting point lay within 167 to 168 °C.

For the compound `CS(=O)(=O)Nc1ccc(OCCCCl)cc1`, the melting point was in the range of 120 to 122 °C.

As for `CN(CCN=C(NC#N)NCCSCc1csc(NC(=N)N)n1)CCC(c1ccccc1)c1ccccn1` (stereo not given), the melting point lay within 115 to 116 °C. In turn, `CN1CCC(c2c[nH]c3ccc(C(=O)c4ccccc4)cc23)CC1` showed a melting point of 101 °C. Turning to `CNC(=S)C1=C(O)C(C)(COC)Oc2ccc([N+](=O)[O-])cc21` (stereo not given), the melting point lay in the range of 139 to 141 °C.
